Reference: ChEMBL document CHEMBL1159205, “Fomitellic acids, triterpenoid inhibitors of eukaryotic DNA polymerases from a basidiomycete, Fomitella fraxinea” (J Nat Prod, 1998)
≈ marks a conversion by molar mass, not a printed value.

Tests used:
[1] = biological target: DNA polymerase beta (Rattus norvegicus) (UniProt P06766); test: Inhibition of rat DNA polymerase beta assessed as incorporation of [3H]dTTP
Bos taurus = organism: Bos taurus; test: Inhibition of calf DNA polymerase alpha assessed as incorporation of [3H]dTTP

SMILES | MIC [1] [µM] | MIC (Bos taurus) [µM]
CO[C@@H]1C[C@]2(C)[C@@H]([C@H](C)CCC=C(C)C)CC[C@@]2(C)C2=C1[C@]1(C)[C@@H](CC2=O)[C@@](C)(C(=O)O)[C@@H](O)C[C@H]1O | 130 (≈ 67.2 µg/mL) | 75 (≈ 38.8 µg/mL)
CC(C)=CCC[C@@H](C)[C@H]1CC[C@@]2(C)C3=C(CC[C@]12C)[C@]1(C)[C@@H](CC3=O)[C@@](C)(C(=O)O)[C@H](O)C[C@H]1O | 95 (≈ 46.2 µg/mL) | 35 (≈ 17 µg/mL)
CC(C)=CCC[C@@H](C)[C@H]1CC[C@@]2(C)C3=C(CC[C@]12C)[C@]1(C)[C@@H](CC3=O)[C@@](C)(C(=O)O)[C@@H](O)C[C@H]1O | 90 (≈ 43.8 µg/mL) | 30 (≈ 14.6 µg/mL)
CC(C)=CCC[C@@H](C)[C@H]1CC[C@@]2(C)C3=C([C@H](O)C[C@]12C)[C@]1(C)[C@@H](CC3=O)[C@@](C)(C(=O)O)[C@@H](O)C[C@H]1O | 125 (≈ 62.8 µg/mL) | 75 (≈ 37.7 µg/mL)
